Consider 1 compound from US11357766B2, “Compositions and methods for treating cancer” (Texas Tech University System, priority 2017, dated 2022).

Like-named read-outs stand apart in the source and are kept apart here.

By IC50 is commonly meant the midpoint of a concentration-inhibition curve.

For the test, the system named is AsPC1, BxPC3, PANC1, MIAPaCa2, PO2, A375VR, SKMEL-28, HCT-116, 4T1, U87, U251, T98G, CT2A cells. Nature of the test: Cytotoxicity studies, sulforhodamine B (SRB) assay. The format is cell-based, human and murine. The conditions noted are these: range over all the cell lines, read-out: IC50 (cell survival). Here is the method: FIGS. 1A to 1E show the effect of Pimavanserin tartrate suppresses the cell survival of pancreatic cancer cells. FIGS. 1F to 1G show the effect of pimavanserin tartrate suppresses the cell survival of melanoma cells. […] In the figures, the following cancer cells were evaluated: AsPC1 cells (FIG. 1A), BxPC3 cells (FIG. 1B), PANC1 cells (FIG. 1C), MIAPaCa2 cells (FIG. 1D), PO2 cells (FIG. 1E), A375VR cells (FIG. 1F), SKMEL-28 cells (FIG. 1G), HCT-116 cells (FIG. 1H), 4T1 cells (FIG. 1I), U87 cells (FIG. 1J), U251 cells (FIG. 1K), T98G vells (FIG. 1L), CT2A cells (FIG. 1M) which were treated with varied concentrations of pimavanserin tartrate for 24, 48 and 72 hours. Cell survival was determined by sulforhodamine B assay to estimate the IC50 values. The studies were repeated independently for three times with 4 replicates in each test. Values are plotted as mean±SD and the statistical significance level was considered as p<0.05.
Cell culture. Human pancreatic cancer cell lines AsPC1, BxPC3, PANC1, MIAPaCa2 cells, SKMEL-28 human melanoma cells, U87, U251, T98G human glioblastoma cells, and human colon cancer cell line HCT-116 were purchased from ATCC (Rockville, Md.). CT2A murine glioblastoma cells was a kind gift from Dr. Jill Edgar, Boston College, Boston. Cell lines were authenticated by STR analysis at TTUHSC core facilities (Lubbock, Tex.). […]
Cytotoxicity studies. The cytotoxic effects of pimavanserin tartrate in AsPC1, BxPC3, PANC1, MIAPaCa2, PO2, A375VR, SKMEL-28, HCT-116, 4T1, U87, U251, T98G, CT2A cells were determined by sulforhodamine B (SRB) assay. […] The optical density was measured using plate reader (Biotek instruments) as described by the present inventors (12).
Pimavanserin inhibited the proliferation of cancer cells, which included pancreatic cancer, melanoma, colon cancer, glioblastoma and breast cancer cells. The cytotoxic effects of pimavanserin were evaluated by SRB assay in the above mentioned cancer cells. […]

Take `CC(C)COc1ccc(CNC(=O)N(Cc2ccc(F)cc2)C2CCN(C)CC2)cc1` [pimavanserin, N-(4-fluorophenylmethyl)-N-(1-methylpiperidin-4-yl)-N′-(4-(2-methylpropyloxy)phenylmethyl)carbamide]: the IC50 fell in the range of 7 to 15 µM (24 hours), 3 to 8 µM (48 hours) and 3 to 8 µM (72 hours).
